# According to ChEMBL document CHEMBL1201862, “PubChem BioAssay data set” (2004):
# Activity calls are given as the source filed them.
# Legend:
# [1] = system: Streptococcus sp. 'group A'; experiment: growth inhibition of control SK(-) GAS strain, dose response, counter-screen for streptokinase expression inhibitor project, luminescence, kanamycin, BacTiterGlo, confirmation (AID 1900); assay type: functional, organism-based
# [2] = target: T1, Streptokinase A (Streptococcus pyogenes serotype M1, UniProt P10520); experiment: S. pyogenes streptokinase expression inhibitors, potency, dose response, plasminogen activation absorbance, OD405 (AID 1914); assay type: functional, Streptococcus pyogenes M1 GAS;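 also: secreted streptokinase activity via plasminogen activation per viability signal from cell pellet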
# T1 sequence (P10520 whole entry): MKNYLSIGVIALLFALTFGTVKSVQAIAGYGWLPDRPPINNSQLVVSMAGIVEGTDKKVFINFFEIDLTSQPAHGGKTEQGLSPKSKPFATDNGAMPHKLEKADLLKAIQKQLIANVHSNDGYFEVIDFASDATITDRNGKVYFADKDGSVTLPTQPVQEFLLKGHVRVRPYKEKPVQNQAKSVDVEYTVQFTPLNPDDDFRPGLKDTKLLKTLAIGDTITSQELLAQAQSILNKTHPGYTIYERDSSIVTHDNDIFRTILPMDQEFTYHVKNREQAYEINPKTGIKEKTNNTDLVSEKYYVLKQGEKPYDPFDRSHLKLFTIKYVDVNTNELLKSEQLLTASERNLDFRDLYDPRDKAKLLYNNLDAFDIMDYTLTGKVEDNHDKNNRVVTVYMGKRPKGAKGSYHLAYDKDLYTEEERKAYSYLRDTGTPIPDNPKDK
# [3] = Luminescence Cell-Based Dose Retest to Confirm Inhibitors of Cancer Stem Cells. [Related pubchem assays (depositor defined):AID2717, AID2721]; assay type: functional; details: Homo sapiens
# [4] = system: Streptococcus; experiment: Group A Streptococcus viability loss, dose response, counter-screen for streptokinase expression inhibitor project, luminescence, BacTiterGlo (AID 1915); assay type: functional, organism-based;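 also: potency for reduction of bacterial viability or growth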
# [5] = microbe, parasite or virus in culture; assay type: functional; details: Mycobacterium tuberculosis
# [6] = cytotoxicity toward NIH3T3 fibroblasts, dose response, counter-screen, cell-based, ATP luminescence, mouse fibroblasts (AID 2010); assay type: functional;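 also: cells exposed to compound for about 90 hours before reading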
# [7] = inhibitors of intracellular T. cruzi replication, confirmation, NIH3T3 host cells, beta-gal luminescence (AID 2044); assay type: functional, cell-based;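 also: intracellular parasites grown in NIH/3T3 mouse fibroblasts as host cells; luminescent beta-galactosidase reporter signal from transgenic T. cruzi replicating inside host cells; inhibitors lower the luminescence signal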
# [8] = target: T2, Protein skinhead-1 (Caenorhabditis elegans, UniProt P34707); assay type: functional
# T2 sequence (P34707 whole entry): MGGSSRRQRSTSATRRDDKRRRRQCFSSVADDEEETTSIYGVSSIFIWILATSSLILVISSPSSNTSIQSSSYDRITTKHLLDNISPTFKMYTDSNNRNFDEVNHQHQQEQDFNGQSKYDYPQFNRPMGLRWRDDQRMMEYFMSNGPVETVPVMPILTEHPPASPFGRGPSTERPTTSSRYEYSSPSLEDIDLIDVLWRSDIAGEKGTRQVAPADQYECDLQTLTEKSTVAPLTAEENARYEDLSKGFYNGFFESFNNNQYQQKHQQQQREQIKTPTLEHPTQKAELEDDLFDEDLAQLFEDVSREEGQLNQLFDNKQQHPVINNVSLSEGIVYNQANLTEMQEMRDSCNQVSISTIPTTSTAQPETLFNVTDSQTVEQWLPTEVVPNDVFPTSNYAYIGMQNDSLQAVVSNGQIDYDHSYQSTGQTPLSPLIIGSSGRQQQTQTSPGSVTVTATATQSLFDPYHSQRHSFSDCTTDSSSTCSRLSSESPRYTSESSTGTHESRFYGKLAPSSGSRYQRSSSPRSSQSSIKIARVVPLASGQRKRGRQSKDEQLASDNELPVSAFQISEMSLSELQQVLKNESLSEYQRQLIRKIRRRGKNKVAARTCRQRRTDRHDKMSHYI
# [9] = HepG2 cell cytotoxicity, dose response, cytotoxicity control for Shn3 inhibitor project, CellTiter-Glo, cherry-picked (AID 624134); assay type: functional, cell-based
# [10] = Shn3 3'UTR reporter inhibitors, dose response, cell-based, Clone20 osteoblasts, firefly luciferase, cherry-picked (AID 624132); assay type: functional;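 also: firefly luciferase luminescence from reporter carrying the Shn3 3'UTR in osteoblasts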
# [11] = inhibitors of firefly luciferase expression or activity, dose response, H4 neuroglioma cells, luminescence (AID 1990); assay type: functional, cell-based
# [12] = inhibitors of SNCA 5'UTR-driven reporter translation, confirmation, H4 neuroglioma cells, luminescence (AID 1988); assay type: functional, cell-based
# [13] = Luminescence Cell-Based Dose Response HTS to Identify Inhibitors of 5'UTR Stem-Loop Driven Prion Protein mRNA Translation in H4 Neuroglioblastoma Cells. [Related pubchem assays: 1827 (Project Summary), 1813 (Primary HTS)]; assay type: functional
# [14] = target: FAD-linked sulfhydryl oxidase ALR (Homo sapiens, UniProt P55789); experiment: inhibitors of human ALR sulfhydryl oxidase, dose response, biochemical, H2O2 detection, luminescence, cherry-pick (AID 493248)
# Chain of FAD-linked sulfhydryl oxidase ALR (P55789 whole entry): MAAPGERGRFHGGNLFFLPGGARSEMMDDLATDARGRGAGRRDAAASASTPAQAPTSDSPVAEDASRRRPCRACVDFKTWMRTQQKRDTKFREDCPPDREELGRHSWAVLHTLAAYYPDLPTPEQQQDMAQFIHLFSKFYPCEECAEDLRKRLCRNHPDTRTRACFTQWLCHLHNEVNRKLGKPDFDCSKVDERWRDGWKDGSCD
# [15] = target: T3, Rac GTPase-activating protein 1 (Homo sapiens, UniProt Q9H0H5); experiment: MgcRacGAP GTPase-activating activity inhibitors, confirmation, biochemical, ADP Hunter fluorescence, primary and confirmatory (AID 624330); assay type: functional
# T3 sequence (Q9H0H5 whole entry): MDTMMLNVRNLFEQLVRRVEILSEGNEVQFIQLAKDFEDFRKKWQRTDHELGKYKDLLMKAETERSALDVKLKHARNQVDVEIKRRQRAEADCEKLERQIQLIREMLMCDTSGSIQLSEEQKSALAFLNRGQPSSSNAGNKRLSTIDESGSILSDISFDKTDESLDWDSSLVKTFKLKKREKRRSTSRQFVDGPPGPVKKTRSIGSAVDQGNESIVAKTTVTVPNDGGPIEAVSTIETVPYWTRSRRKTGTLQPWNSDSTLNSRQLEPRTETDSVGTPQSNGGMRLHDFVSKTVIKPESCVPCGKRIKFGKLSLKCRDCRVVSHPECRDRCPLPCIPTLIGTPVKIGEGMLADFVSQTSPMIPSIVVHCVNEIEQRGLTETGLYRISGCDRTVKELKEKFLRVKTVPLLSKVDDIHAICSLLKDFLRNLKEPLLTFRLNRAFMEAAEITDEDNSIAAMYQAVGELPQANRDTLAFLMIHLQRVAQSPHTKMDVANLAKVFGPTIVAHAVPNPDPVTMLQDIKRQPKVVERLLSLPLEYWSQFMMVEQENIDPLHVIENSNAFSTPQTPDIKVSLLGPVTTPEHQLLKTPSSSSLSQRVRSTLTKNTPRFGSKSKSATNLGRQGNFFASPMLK
# [16] = HEp-2 cell cytotoxicity, dose response, cytotoxicity control for RSV inhibitor project, HTS (AID 2410); assay type: functional; details: human respiratory syncytial virus
# [17] = target: Cytochrome P450 2C19 (Homo sapiens, UniProt P33261); experiment: Cytochrome panel assay with activity outcomes. Panel member name: p450-cyp2c19 Compounds with AC50 equal or less than 10 uM are considered active; assay type: functional; details: read-out: AC50
# Chain of Cytochrome P450 2C19 (P33261 whole entry): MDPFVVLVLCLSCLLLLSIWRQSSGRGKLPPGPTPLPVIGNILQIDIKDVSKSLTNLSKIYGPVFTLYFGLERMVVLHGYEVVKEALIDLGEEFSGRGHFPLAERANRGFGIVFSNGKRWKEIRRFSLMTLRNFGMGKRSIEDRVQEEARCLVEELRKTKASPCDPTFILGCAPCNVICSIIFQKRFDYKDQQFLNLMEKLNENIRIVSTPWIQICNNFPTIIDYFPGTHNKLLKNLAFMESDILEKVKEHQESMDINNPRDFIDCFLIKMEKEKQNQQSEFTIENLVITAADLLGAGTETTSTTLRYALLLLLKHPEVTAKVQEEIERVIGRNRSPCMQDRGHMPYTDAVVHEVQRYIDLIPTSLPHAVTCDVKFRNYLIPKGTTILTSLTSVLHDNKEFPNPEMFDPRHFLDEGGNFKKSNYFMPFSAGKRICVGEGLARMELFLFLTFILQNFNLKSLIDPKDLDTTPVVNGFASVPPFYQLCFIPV
structure (smiles),measurement,setting,value
O=[N+]([O-])c1cccnc1N1CCC(c2cc(-c3ccc(Cl)cc3Cl)[nH]n2)CC1,EC50,[1],2.31 µM (active)
same,EC50,[2],4.61 µM (active)
same,AC50,[3],4.74 µM (active)
same,EC50,[4],13.4 µM (active)
COc1ccccc1C1CCN(Cc2ccc3ccccc3c2)CC1,CC50,[5],> 40 µM (active)
same,EC50,[6],> 60 µM (not active)
same,EC50,[7],1.2 µM (active)
CC1CN(S(=O)(=O)c2cccc(C(=O)OCC(=O)Nc3ccc4c(c3)OCO4)c2)CC(C)O1 (stereo unspecified),IC50,[8],> 100 µM (inactive)
O=c1c2ccccc2nnn1Cc1ccc(Br)cc1,IC50,[8],87.8 µM (inactive)
CC(C)c1ccc(Oc2cccc3c2S(=O)(=O)N(C2CCCC2)CC(COCc2ccccc2)O3)cc1 (stereo unspecified),AC50,[9],> 70 µM (inactive)
same,AC50,[10],15.5 µM (active)
Cc1cc(C)c2oc(-c3ccc(C)c(NC(=S)NC(=O)/C=C/c4ccco4)c3)nc2c1,CC50,[5],> 40 µM (active)
CCCCCNCC(=O)Nc1cccc(C(=O)Nc2cccc(C(F)(F)F)c2)c1,AC50,[3],9.98 µM (active)
CC1=CC(C)[C@H](/C=N/n2c(=O)[nH]c3c([nH]c4ccc(Br)cc43)c2=O)C(C)C1 (stereo partly specified),EC50,[6],> 60 µM (not active)
same,EC50,[7],2.06 µM (active)
same,AC50,[3],0.876 µM (active)
O=C1/C(=C\c2cc(Br)cc(Br)c2O)SC(=S)N1Cc1ccccc1,AC50,[3],0.894 µM (active)
COCCNc1nnnc2c1sc1nc(N3CCOCC3)c3c(c12)CC(C)(C)OC3,EC50,[11],15.8 µM (active)
same,EC50,[12],> 120 µM (not active)
same,EC50,[13],> 120 µM (not active)
Cc1ccccc1CS(=O)(=O)c1ccc(C(=O)N2CCOCC2)cc1[N+](=O)[O-],EC50,[11],> 120 µM (not active)
same,EC50,[12],> 120 µM (not active)
same,EC50,[13],> 120 µM (not active)
CCCNC(=O)c1onc(CSc2ccc(Cl)cc2)c1C(=O)NCCC(C)C,AC50,[3],1.93 µM (active)
Cc1ccc(-c2nc(-c3cccnc3)sc2CC(=O)Nc2ccc(C)c(Cl)c2)cc1,EC50,[11],> 120 µM (not active)
same,EC50,[12],> 120 µM (not active)
same,EC50,[13],0.3 µM (active)
O=C(O)CCCN1C(=O)c2ccccc2Sc2ncccc21,IC50,[8],> 100 µM (inactive)
CCOC(=O)Nc1sc(C(=O)N(C)C)c(C)c1C(=O)OCC,EC50,[11],23.9 µM (active)
same,EC50,[12],76.5 µM (active)
same,EC50,[13],> 120 µM (not active)
Cc1cc2c3c(ccc(C)c3n1)N=CN2c1ccccc1,EC50,[11],12.3 µM (active)
same,EC50,[12],119 µM (active)
same,EC50,[13],23.3 µM (active)
CCNc1nc(NCC)nc(N/N=C/c2ccc([N+](=O)[O-])o2)n1,CC50,[5],39 µM (active)
Cc1onc(-c2c(Cl)cccc2Cl)c1C(=O)NNc1ccccc1,AC50,[3],1.44 µM (active)
CC(=O)Nc1ccc(S(=O)(=O)N(C)CC(=O)NNC(=O)c2cccs2)cc1,IC50,[8],> 100 µM (inactive)
CCN(CC)CCOC(=O)c1ccc(NC(=O)CCCN2C(=O)/C(=C\c3cccs3)SC2=S)cc1,IC50,[8],> 100 µM (inactive)
Cc1cc(C)nc(NC(=O)/C=C/c2cccs2)c1,AC50,[3],6.68 µM (active)
COc1ccc(OC)c(NC(=O)c2cc(-c3cc(F)ccc3OCC3CCCO3)[nH]n2)c1 (stereo unspecified),AC50,[10],10.5 µM (active)
CC(=O)Nc1ccc(N2C(=O)CSC2c2ccccc2)cc1 (stereo unspecified),AC50,[14],0.025 µM (active)
CCOC(=O)c1c(-c2cccs2)csc1NC(=O)CN1CC(C)OC(C)C1 (stereo unspecified),IC50,[8],> 100 µM (inactive)
COc1ccc(C(=O)NC(=S)N2CCN(c3ccccc3OC)CC2)cc1OC,EC50,[11],> 120 µM (not active)
same,EC50,[12],> 120 µM (not active)
same,EC50,[13],> 120 µM (not active)
COc1ccc2[nH]c(C)c(-c3csc(N)n3)c2c1,AC50,[14],5.23 µM (active)
CC1(C)Cc2nc3[nH]nc(N)c3cc2CO1,AC50,[14],4.26 µM (active)
CC(C)Cc1nc2oc3c(N4CCN(CCO)CC4)ncnc3c2c2c1CCCC2,CC50,[5],33.8 µM (active)
O=[N+]([O-])c1cc(-c2cnc3ccccc3n2)ccc1Oc1ccc(Cl)cc1,AC50,[3],0.628 µM (active)
COc1ccccc1-n1c(SCC(=O)Nc2cc(C)on2)nc2c(c1=O)SCC2,AC50,[9],> 70 µM (inactive)
CCOC(=O)c1c(C)cc(C)n2c1nc1ccccc12,IC50,[8],> 100 µM (inactive)
O=C(Nc1nccs1)c1ccc(-c2ccc(F)cc2)o1,IC50,[8],> 100 µM (inactive)
Cc1ccc(-c2ccc(CCC(=O)O)n2NC(=O)c2cccs2)cc1,AC50,[14],8.15 µM (active)
COc1ccc(Cc2nnc(NC(=O)c3ccc(OC)c(OC)c3)s2)cc1OC,EC50,[11],> 120 µM (not active)
same,EC50,[12],> 120 µM (not active)
same,EC50,[13],> 120 µM (not active)
CC(=O)N1CCN(c2ccc(NCc3cccc(C)c3)cc2)CC1,IC50,[15],9.89 µM (active)
same,AC50,[14],0.787 µM (active)
O=C(C[C@@H]1C/C=C\C[C@H](NC(=O)OCC2c3ccccc3-c3ccccc32)C(=O)OC[C@H]2CCCN2C1=O)N[C@@H](CO)Cc1ccccc1,CC50,[5],> 40 µM (active)
CCOc1ccc(C2c3[nH]c4ccccc4c3C[C@H]3C(=O)N(C4CCN(Cc5ccccc5)CC4)CC(=O)N23)cc1OC (stereo partly specified),CC50,[5],38.9 µM (active)
COn1c(-c2ccc(Cl)cc2)nc2ccc(Cl)cc21,IC50,[8],10.8 µM (active)
same,CC50,[16],35.3 µM (active)
CN1C(=O)c2ccccc2NC(=O)C1Cc1ccccc1 (stereo unspecified),AC50,[14],3.26 µM (active)
N#Cc1c2n(c3c(S)ncnc13)CCCCC2,AC50,[17],25.1 µM (inconclusive)
same,AC50,[14],1.65 µM (active)
O=C(COC(=O)c1c2c(nc3ccccc13)/C(=C\c1cccs1)CCC2)Nc1ccccc1,EC50,[6],> 60 µM (inconclusive)
same,EC50,[7],1.9 µM (active)
same,AC50,[3],1.54 µM (active)
CC(C)(C)NC(=O)c1ccc2c(c1)C1C3CCC(C3)C1C(c1ccccc1)N2 (stereo unspecified),EC50,[11],> 120 µM (not active)
same,EC50,[12],> 120 µM (not active)
same,EC50,[13],> 120 µM (not active)
N#C/C(=C\c1ccco1)c1nc2ccccc2s1,IC50,[8],> 100 µM (inactive)
CC(C)c1nc2scc(-c3ccc(Cl)cc3)c2c(=O)n1N,CC50,[5],> 40 µM (active)
Cc1ccc(N/N=C2/CCCNC2=O)cc1,AC50,[14],2.66 µM (active)
O=c1/c(=C/c2ccc(O)cc2)sc2n1CCCN=2,IC50,[15],20.1 µM (active)
same,AC50,[14],1.16 µM (active)
